IC50 data for 15 compounds are collected here from patent publication US20100292279A1, “Bis-(Sulfonylamino) Derivatives in Therapy” (ASTRAZENECA AB, priority 2009, published 2010).

One may read the IC50 as the concentration that inhibits the measured activity by half.

For the test, the target named is T1, human mPGES-1 (Homo sapiens, UniProt O14684).
T1 construct: host or cells: microsomes
T1 sequence (O14684 1-152): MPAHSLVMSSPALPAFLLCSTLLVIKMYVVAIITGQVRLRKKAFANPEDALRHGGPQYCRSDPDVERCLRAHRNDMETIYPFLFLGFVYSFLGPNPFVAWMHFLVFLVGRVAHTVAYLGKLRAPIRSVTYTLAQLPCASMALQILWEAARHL
Briefly: Microsomal prostaglandin E synthase biochemical assay. The following applies: microsome preparation containing human mPGES-1; substrate PGH2 10.8 μM, GSH 2.5 mM, pH 6.8; PGE2 by HTRF; average of at least n=2. How it is done:
Compounds were tested as inhibitors of microsomal prostaglandin E synthase activity in microsomal prostaglandin E synthase assays and whole cell assays. These assays measure prostaglandin E2 (PGE2) synthesis which is taken as a measure of prostaglandin E synthase activity. Microsomal prostaglandin E synthase biochemical assays used microsomal prostaglandin E synthase-1 in microsomal preparations. The source of the microsomes can be for example interleukin-1β-stimulated human A549 cells (which express human mPGES-1) or Sf9 cells transfected with plasmids encoding human mPGES-1 cDNA.
A solution of test compound was added to a diluted microsome preparation containing is human mPGES-1 and pre-incubated for 15 minutes in potassium phosphate buffer pH 6.8 with cofactor glutathione (GSH). Corresponding solutions without test compound were used as positive controls, and corresponding solutions without test compound and without microsomes were used as negative controls. The enzymatic reaction was then started by addition of the substrate PGH2 in an organic solution (dry acetonitrile).
The reaction was stopped after one minute by adding an acidic solution (pH 1.9) of ferric chloride and citrate (final concentrations 7 mM and 47 mM respectively), by which the PGH2 was sequestered (the PGH2 is reduced to mainly 12-hydroxy heptadecatrineoic acid (12-HHT) which is not detected by the subsequent PGE2 detection step). The resulting solution was then pH neutralized by addition of potassium phosphate buffer, prior to diluting an aliquot of the resulting solution in a weak potassium phosphate buffer (50 mM, pH 6.8) containing 0.2% BSA (w/v). […] The PGE2 formed was quantified by use of a commercial HTRF based kit (catalogue #62PG2PEC or #62P2APEC from Cisbio International). 100% activity was defined as the PGE2 production in positive controls subtracted by the PGE2 production in the negative controls. IC50 values were then determined using standard procedures.
For orientation: Time-resolved FRET reads energy transfer from a long-lived donor to a nearby acceptor.
Regarding `CC(C)C#Cc1ccc(C(=O)NS(=O)(=O)c2ccccc2S(N)(=O)=O)cc1COCC(F)(F)F` [Example 56, 4-(3-Methylbut-1-ynyl)-N-(2-sulfamoylphenylsulfonyl)-3-((2,2,2-trifluoroethoxy)methyl)benzamide], the IC50 was 0.1 µM. In other words, the sub-micromolar range.
Regarding `CC(C)C#Cc1ccc(C(=O)NS(=O)(=O)c2ccccc2S(N)(=O)=O)cc1OCCCC(F)(F)F` [Example 64, 4-(3-Methylbut-1-ynyl)-N-(2-sulfamoylphenylsulfonyl)-3-(4,4,4-trifluorobutoxy)benzamide], the IC50 is 0.015 µM.
Compound `CC(C)C#Cc1ccc(C(=O)NS(=O)(=O)c2ccccc2S(N)(=O)=O)cc1OCCC(F)(F)F` [Example 45, 4-(3-Methylbut-1-ynyl)-N-(2-sulfamoylphenylsulfonyl)-3-(3,3,3-trifluoropropoxy)benzamide] had an IC50 of 0.018 µM.
Then `CC(C)C#Cc1ccc(C(=O)NS(=O)(=O)c2ccccc2S(N)(=O)=O)cc1OCCCF` [Example 72, 3-(3-Fluoropropoxy)-4-(3-methylbut-1-ynyl)-N-(2-sulfamoylphenylsulfonyl)benzamide], with 0.043 µM.
Next, `COc1cc(C(=O)NS(=O)(=O)c2ccccc2S(N)(=O)=O)ccc1C#Cc1ccccc1C` [Example 14, 3-Methoxy-N-(2-sulfamoylphenylsulfonyl)-4-(o-tolylethynyl)benzamide]: 0.011 µM; `CC(C)C#Cc1ccc(C(=O)NS(=O)(=O)c2ccccc2S(N)(=O)=O)cc1OCC(F)F` [Example 52, 3-(2,2-Difluoroethoxy)-4-(3-methylbut-1-ynyl)-N-(2-sulfamoylphenylsulfonyl)benzamide]: 0.05 µM.
Next, `COc1cc(C(=O)NS(=O)(=O)c2ccccc2S(N)(=O)=O)ccc1C#Cc1cccc(Cl)c1` [Example 19, 4-((3-Chlorophenyl)ethynyl)-3-methoxy-N-(2-sulfamoylphenylsulfonyl)benzamide]: 0.0073 µM; `NS(=O)(=O)c1ccccc1S(=O)(=O)NC(=O)c1ccc(C#Cc2ccc(C(F)(F)F)cc2)cc1` [Example 41, N-(2-Sulfamoylphenylsulfonyl)-4-((4-(trifluoromethyl)phenyl)ethynyl)benzamide]: 0.0057 µM.
As to `CC(C)(C)C#Cc1ccc(C(=O)NS(=O)(=O)c2ccccc2S(N)(=O)=O)cc1OCC(F)F` [Example 6, 3-(2,2-Difluoroethoxy)-4-(3,3-dimethylbut-1-ynyl)-N-(2-sulfamoylphenylsulfonyl)benzamide], the concentration for half-maximal inhibition (IC50) came to 0.025 µM.
Next, `COc1cc(C(=O)NS(=O)(=O)c2ccccc2S(N)(=O)=O)ccc1C#Cc1ccc(C)cc1` [Example 17, 3-Methoxy-N-(2-sulfamoylphenylsulfonyl)-4-(p-tolylethynyl)benzamide]: 0.0063 µM; `Cc1ccccc1C#Cc1ccc(C(=O)NS(=O)(=O)c2ccccc2S(N)(=O)=O)cc1` [Example 8, N-(2-Sulfamoylphenylsulfonyl)-4-(o-tolylethynyl)benzamide]: 0.0064 µM; `CC(C)Oc1cc(C(=O)NS(=O)(=O)c2ccccc2S(N)(=O)=O)ccc1C#Cc1ccc(C(F)(F)F)cc1` [Example 33, 3-Isopropoxy-N-(2-sulfamoylphenylsulfonyl)-4-((4-(trifluoromethyl)phenyl)ethynyl)benzamide]: 0.054 µM.
Next, `NS(=O)(=O)c1ccccc1S(=O)(=O)NC(=O)c1ccc(-c2cc3ccccc3o2)c(OCC(F)F)c1` [Example 7, 4-(Benzofuran-2-yl)-3-(2,2-difluoroethoxy)-N-(2-sulfamoylphenylsulfonyl)benzamide]: 0.0045 µM; `COc1cc(C(=O)NS(=O)(=O)c2ccccc2S(N)(=O)=O)ccc1C#Cc1ccccc1` [Example 73, 3-Methoxy-4-(phenylethynyl)-N-(2-sulfamoylphenylsulfonyl)benzamide]: 0.024 µM; `COc1ccc(S(=O)(=O)NC(=O)c2ccc(C#CC(C)(C)C)cc2)c(S(N)(=O)=O)c1` [Example 78, 4-methoxy-benzene-1,2-disulfonic acid 2-amide 1-[4-(3,3-dimethyl-but-1-ynyl)-benzoylamide]]: 2.2 µM.
